In patent EP4722207A1, “OXOISOINDOLINYL-SUBSTITUTED TETRAHYDROPYRIMIDINEDIONE DERIVATIVE AND USE THEREOF” (Gluetacs Therapeutics (Shanghai) Co., Ltd., priority 2023, dated 2024):

Legend:
Assay type in all cases: cell-based
WEE1 = target: T1, WEE1 (Homo sapiens, UniProt P30291+Q96SW2); assay: Western-blot assay, substrate protein degradation in hPBMCs: WEE1; settings: for WEE1 substrate protein remaining %: compounds at 50 nM and 500 nM, 24 hours; for substrate protein remaining % WEE1: 24 hours of compound treatment, 50 nM and 500 nM
T1 construct: effects of the compounds of the present disclosure on the expression of target proteins in cells; endogenous in cells; host or cells: human PBMCs (hPBMCs)

IKZF1 = target: T2, IKZF1 (Homo sapiens, UniProt Q13422+Q96SW2); assay: Western-blot assay, substrate protein degradation in hPBMCs: IKZF1; settings: for IKZF1 substrate protein remaining %: compounds at 50 nM and 500 nM, 24 hours; for substrate protein remaining % IKZF1: 24 hours of compound treatment, 50 nM and 500 nM
T2 construct: effects of the compounds of the present disclosure on the expression of target proteins in cells; endogenous in cells; host or cells: human PBMCs (hPBMCs)

IKZF2 = target: T3, IKZF2 (Homo sapiens, UniProt Q96SW2+Q9UKS7); assay: Western-blot assay, substrate protein degradation in hPBMCs: IKZF2; settings: for IKZF2 substrate protein remaining %: compounds at 50 nM and 500 nM, 24 hours; for substrate protein remaining % IKZF2: 24 hours of compound treatment, 50 nM and 500 nM
T3 construct: effects of the compounds of the present disclosure on the expression of target proteins in cells; endogenous in cells; host or cells: human PBMCs (hPBMCs)

IKZF3 = target: T4, IKZF3 (Homo sapiens, UniProt Q96SW2+Q9UKT9); assay: Western-blot assay, substrate protein degradation in hPBMCs: IKZF3; settings: for IKZF3 substrate protein remaining %: compounds at 50 nM and 500 nM, 24 hours; for substrate protein remaining % IKZF3: 24 hours of compound treatment, 50 nM and 500 nM
T4 construct: effects of the compounds of the present disclosure on the expression of target proteins in cells; endogenous in cells; host or cells: human PBMCs (hPBMCs)

CK1α = target: T5, CK1α (Homo sapiens, UniProt P48729+Q96SW2); assay: Western-blot assay, substrate protein degradation in hPBMCs: CK1α; settings: for CK1α substrate protein remaining %: compounds at 50 nM and 500 nM, 24 hours; for substrate protein remaining % CK1α: 24 hours of compound treatment, 50 nM and 500 nM
T5 construct: effects of the compounds of the present disclosure on the expression of target proteins in cells; endogenous in cells; host or cells: human PBMCs (hPBMCs)

GSPT1 = target: T6, GSPT1 (Homo sapiens, UniProt P15170+Q96SW2); assay: Western-blot assay, substrate protein degradation in hPBMCs: GSPT1; settings: for GSPT1 substrate protein remaining %: compounds at 50 nM and 500 nM, 24 hours; for substrate protein remaining % GSPT1: 24 hours of compound treatment, 50 nM and 500 nM
T6 construct: effects of the compounds of the present disclosure on the expression of target proteins in cells; endogenous in cells; host or cells: human PBMCs (hPBMCs)
T6 sequence (P15170 whole entry): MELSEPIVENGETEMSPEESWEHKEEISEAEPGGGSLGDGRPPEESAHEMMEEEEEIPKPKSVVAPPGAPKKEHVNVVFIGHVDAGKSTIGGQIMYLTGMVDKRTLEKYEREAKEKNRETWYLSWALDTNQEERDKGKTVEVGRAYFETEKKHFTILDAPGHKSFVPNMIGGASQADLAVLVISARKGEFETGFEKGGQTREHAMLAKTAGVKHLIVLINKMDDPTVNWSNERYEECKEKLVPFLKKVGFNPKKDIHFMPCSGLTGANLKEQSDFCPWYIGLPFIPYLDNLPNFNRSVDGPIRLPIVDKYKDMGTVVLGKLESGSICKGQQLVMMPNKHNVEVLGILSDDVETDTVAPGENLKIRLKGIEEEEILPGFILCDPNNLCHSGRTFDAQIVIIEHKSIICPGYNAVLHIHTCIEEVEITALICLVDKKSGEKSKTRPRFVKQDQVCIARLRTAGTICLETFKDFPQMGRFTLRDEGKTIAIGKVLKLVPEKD
T6 sequence (Q96SW2 whole entry): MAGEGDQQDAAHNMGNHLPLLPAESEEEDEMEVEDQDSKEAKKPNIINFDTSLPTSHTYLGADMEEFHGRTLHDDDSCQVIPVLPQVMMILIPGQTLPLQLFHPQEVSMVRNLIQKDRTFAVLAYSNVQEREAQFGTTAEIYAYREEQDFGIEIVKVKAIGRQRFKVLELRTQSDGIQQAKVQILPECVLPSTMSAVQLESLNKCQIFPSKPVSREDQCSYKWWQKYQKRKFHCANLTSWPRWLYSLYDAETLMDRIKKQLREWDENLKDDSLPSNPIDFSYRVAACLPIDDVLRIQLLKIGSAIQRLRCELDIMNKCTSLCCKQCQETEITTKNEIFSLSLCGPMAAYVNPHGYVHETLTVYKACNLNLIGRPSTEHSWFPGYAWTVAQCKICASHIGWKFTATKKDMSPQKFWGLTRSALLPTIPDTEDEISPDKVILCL
T6 sequence (Q16531 whole entry partner): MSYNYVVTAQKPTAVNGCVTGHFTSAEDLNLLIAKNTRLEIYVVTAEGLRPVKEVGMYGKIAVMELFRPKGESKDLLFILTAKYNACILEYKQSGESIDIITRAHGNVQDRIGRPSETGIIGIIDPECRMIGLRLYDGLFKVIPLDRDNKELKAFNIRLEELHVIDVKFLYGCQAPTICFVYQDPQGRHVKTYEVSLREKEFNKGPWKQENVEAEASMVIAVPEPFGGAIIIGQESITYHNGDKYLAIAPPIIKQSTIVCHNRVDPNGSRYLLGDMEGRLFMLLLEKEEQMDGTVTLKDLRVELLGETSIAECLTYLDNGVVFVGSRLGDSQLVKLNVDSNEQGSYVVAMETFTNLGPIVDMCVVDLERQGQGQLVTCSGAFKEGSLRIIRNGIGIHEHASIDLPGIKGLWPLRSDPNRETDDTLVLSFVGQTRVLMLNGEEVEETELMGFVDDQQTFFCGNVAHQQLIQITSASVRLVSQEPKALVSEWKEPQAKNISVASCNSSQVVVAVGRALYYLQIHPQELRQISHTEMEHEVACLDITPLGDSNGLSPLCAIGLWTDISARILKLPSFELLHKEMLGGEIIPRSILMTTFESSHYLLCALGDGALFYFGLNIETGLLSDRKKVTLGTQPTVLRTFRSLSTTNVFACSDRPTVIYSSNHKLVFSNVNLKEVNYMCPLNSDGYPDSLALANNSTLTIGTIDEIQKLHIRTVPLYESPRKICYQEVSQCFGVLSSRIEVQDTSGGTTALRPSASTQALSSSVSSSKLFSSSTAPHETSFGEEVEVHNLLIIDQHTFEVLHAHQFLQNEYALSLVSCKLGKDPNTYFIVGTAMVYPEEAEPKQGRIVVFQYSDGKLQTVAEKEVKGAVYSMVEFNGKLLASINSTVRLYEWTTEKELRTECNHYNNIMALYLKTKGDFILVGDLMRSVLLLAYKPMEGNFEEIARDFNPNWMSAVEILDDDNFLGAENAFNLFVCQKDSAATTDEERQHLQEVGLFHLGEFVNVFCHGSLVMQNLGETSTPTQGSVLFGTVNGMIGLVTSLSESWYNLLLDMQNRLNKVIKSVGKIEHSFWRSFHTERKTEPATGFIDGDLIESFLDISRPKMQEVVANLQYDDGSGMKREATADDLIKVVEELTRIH

T4 sequence (Q9UKT9 whole entry): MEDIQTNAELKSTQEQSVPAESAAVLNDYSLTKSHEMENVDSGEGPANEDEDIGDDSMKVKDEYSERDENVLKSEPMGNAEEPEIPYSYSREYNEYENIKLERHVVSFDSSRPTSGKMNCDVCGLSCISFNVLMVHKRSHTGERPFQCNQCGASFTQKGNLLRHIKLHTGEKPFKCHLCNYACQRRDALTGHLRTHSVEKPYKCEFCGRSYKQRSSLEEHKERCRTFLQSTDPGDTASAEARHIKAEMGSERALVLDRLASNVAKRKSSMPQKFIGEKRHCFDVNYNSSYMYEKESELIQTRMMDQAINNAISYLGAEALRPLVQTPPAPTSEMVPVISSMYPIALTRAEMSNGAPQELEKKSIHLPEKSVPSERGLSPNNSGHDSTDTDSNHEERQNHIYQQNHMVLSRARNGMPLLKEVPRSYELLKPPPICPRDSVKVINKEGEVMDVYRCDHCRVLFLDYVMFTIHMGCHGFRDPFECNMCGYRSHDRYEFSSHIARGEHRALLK
T4 sequence (Q96SW2 whole entry): as the sequence (Q96SW2 whole entry) above
T4 sequence (Q16531 whole entry partner): as the sequence (Q16531 whole entry partner) above
T2 sequence (Q13422 whole entry): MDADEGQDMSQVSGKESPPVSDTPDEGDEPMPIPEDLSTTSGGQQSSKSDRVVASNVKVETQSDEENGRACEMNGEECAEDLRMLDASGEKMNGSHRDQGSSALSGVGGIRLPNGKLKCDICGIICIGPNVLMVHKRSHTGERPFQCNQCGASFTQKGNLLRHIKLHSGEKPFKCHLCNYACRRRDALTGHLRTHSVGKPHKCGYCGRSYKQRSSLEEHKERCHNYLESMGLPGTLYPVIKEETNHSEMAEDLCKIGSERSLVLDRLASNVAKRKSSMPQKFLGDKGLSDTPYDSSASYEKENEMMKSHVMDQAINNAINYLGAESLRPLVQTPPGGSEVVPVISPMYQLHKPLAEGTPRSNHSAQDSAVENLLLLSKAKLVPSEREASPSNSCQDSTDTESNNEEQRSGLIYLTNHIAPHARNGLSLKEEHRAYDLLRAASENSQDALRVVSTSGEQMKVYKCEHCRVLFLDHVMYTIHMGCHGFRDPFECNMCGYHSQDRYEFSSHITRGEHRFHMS
T2 sequence (Q96SW2 whole entry): as the sequence (Q96SW2 whole entry) above
T2 sequence (Q16531 whole entry partner): as the sequence (Q16531 whole entry partner) above
T1 sequence (P30291 whole entry): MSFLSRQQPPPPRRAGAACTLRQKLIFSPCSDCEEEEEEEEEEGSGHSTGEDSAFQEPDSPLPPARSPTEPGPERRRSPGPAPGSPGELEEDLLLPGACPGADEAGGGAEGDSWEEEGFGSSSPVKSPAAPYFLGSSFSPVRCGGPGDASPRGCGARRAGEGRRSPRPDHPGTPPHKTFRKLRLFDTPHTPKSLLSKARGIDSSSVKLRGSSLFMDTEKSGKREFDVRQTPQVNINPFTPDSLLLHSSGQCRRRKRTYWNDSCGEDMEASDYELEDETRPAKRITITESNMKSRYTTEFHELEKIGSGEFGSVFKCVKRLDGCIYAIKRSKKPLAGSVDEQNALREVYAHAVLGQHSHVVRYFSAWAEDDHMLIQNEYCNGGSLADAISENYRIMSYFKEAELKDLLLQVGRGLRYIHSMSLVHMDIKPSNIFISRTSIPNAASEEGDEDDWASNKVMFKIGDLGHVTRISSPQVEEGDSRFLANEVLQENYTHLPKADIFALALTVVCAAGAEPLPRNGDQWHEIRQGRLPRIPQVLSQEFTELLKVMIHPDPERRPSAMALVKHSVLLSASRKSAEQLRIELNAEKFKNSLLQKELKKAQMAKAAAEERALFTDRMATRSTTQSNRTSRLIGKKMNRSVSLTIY
T1 sequence (Q96SW2 whole entry): as the sequence (Q96SW2 whole entry) above
T1 sequence (Q16531 whole entry partner): as the sequence (Q16531 whole entry partner) above
T5 sequence (P48729 whole entry): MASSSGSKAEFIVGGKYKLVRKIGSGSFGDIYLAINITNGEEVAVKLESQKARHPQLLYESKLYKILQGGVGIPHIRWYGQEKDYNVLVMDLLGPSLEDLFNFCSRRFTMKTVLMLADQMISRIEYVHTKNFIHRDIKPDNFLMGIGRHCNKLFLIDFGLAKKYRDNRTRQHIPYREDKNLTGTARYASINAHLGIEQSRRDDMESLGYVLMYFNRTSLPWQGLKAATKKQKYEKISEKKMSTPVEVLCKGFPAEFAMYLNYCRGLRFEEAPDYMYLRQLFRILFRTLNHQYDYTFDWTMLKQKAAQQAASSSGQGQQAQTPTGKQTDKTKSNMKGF
T5 sequence (Q96SW2 whole entry): as the sequence (Q96SW2 whole entry) above
T5 sequence (Q16531 whole entry partner): as the sequence (Q16531 whole entry partner) above

Compound | WEE1 substrate protein remaining % (WEE1) | IKZF1 substrate protein remaining % (IKZF1) | IKZF2 substrate protein remaining % (IKZF2) | IKZF3 substrate protein remaining % (IKZF3) | CK1α substrate protein remaining % (CK1α) | GSPT1 substrate protein remaining % (GSPT1) | substrate protein remaining % WEE1 (WEE1) | substrate protein remaining % IKZF1 (IKZF1) | substrate protein remaining % IKZF2 (IKZF2) | substrate protein remaining % IKZF3 (IKZF3) | substrate protein remaining % CK1α (CK1α) | substrate protein remaining % GSPT1 (GSPT1)
O=C1CCN(N2C(=O)c3ccc(CN4CCN(c5cncc(Cl)c5Cl)CC4)cc3C2=O)C(=O)N1 [GT-06972, 5-((4-(4,5-dichloropyridin-3-yl)piperazin-1-yl)methyl)-2-(2,4-dioxotetrahydropyrimidin-1(2H)-yl)isoindoline-1,3-dione] | A ("A" is defined as 0% ≤ substrate protein remaining % ≤ 80%) | B ("B" is defined as 80%< substrate protein remaining %≤ 100%) | A ("A" is defined as 0% ≤ substrate protein remaining % ≤ 80%) | B ("B" is defined as 80%< substrate protein remaining %≤ 100%) | B ("B" is defined as 80%< substrate protein remaining %≤ 100%) | B ("B" is defined as 80%< substrate protein remaining %≤ 100%) |  |  |  |  |  | 
O=C1CCN(N2C(=O)c3ccc(CN4CC=C(c5ccnc(Cl)c5Cl)CC4)cc3C2=O)C(=O)N1 [GT-07440, 5-((2',3'-dichloro-3,6-dihydro-[4,4'-bipyridin]-1(2H)-yl)methyl)-2-(2,4-dioxotetrahydropyrimidin-1(2H)-yl)isoindoline-1,3-dione] |  |  |  |  |  |  | A (0% ≤ substrate protein remaining % ≤ 80%) | B (80%< substrate protein remaining %≤ 100%) | B (80%< substrate protein remaining %≤ 100%) | B (80%< substrate protein remaining %≤ 100%) | A (0% ≤ substrate protein remaining % ≤ 80%) | A (0% ≤ substrate protein remaining % ≤ 80%)
O=C1CCN(N2Cc3cc(CN4CCN(c5cnccn5)CC4)ccc3C2=O)C(=O)N1 [GT-07160, 1-(1-oxo-5-((4-(pyrazin-2-yl)piperazin-1-yl)methyl)isoindolin-2-yl)dihydropyrimidine-2,4(1H,3H)-dione] | B ("B" is defined as 80%< substrate protein remaining %≤ 100%) | B ("B" is defined as 80%< substrate protein remaining %≤ 100%) | A ("A" is defined as 0% ≤ substrate protein remaining % ≤ 80%) | B ("B" is defined as 80%< substrate protein remaining %≤ 100%) | A ("A" is defined as 0% ≤ substrate protein remaining % ≤ 80%) | A ("A" is defined as 0% ≤ substrate protein remaining % ≤ 80%) |  |  |  |  |  | 
O=C1CCN(N2C(=O)c3ccc(CN4CCN(c5ccc(C(F)(F)F)cn5)CC4)cc3C2=O)C(=O)N1 [GT-06968, 2-(2,4-dioxotetrahydropyrimidin-1(2H)-yl)-5-((4-(5-(trifluoromethyl)pyridin-2-yl)piperazin-1-yl)methyl)isoindoline-1,3-dione] | A ("A" is defined as 0% ≤ substrate protein remaining % ≤ 80%) | B ("B" is defined as 80%< substrate protein remaining %≤ 100%) | A ("A" is defined as 0% ≤ substrate protein remaining % ≤ 80%) | B ("B" is defined as 80%< substrate protein remaining %≤ 100%) | B ("B" is defined as 80%< substrate protein remaining %≤ 100%) | B ("B" is defined as 80%< substrate protein remaining %≤ 100%) |  |  |  |  |  | 
CC1(C)CCC(CN2CC3CC2CN3Cc2ccc3c(c2)C(=O)N(N2CCC(=O)NC2=O)C3=O)=C(c2ccc(Cl)cc2)C1 (stereo not drawn) [GT-07334, 5-((5-((4'-chloro-5,5-dimethyl-3,4,5,6-tetrahydro-[1,1'-biphenyl]-2-yl)methyl)-2,5-diazabicyclo[2.2.1]heptan-2-yl)methyl)-2-(2,4-dioxotetrahydropyrimidin-1(2H)-yl)isoindoline-1,3-dione] |  |  |  |  |  |  | A (0% ≤ substrate protein remaining % ≤ 80%) | B (80%< substrate protein remaining %≤ 100%) | B (80%< substrate protein remaining %≤ 100%) | B (80%< substrate protein remaining %≤ 100%) | A (0% ≤ substrate protein remaining % ≤ 80%) | B (80%< substrate protein remaining %≤ 100%)
O=C1CCN(N2C(=O)c3ccc(CN4CCC(c5c[nH]c6cc(F)ccc56)CC4)cc3C2=O)C(=O)N1 [GT-05259, 2-(2,4-dioxotetrahydropyrimidin-1(2H)-yl)-5-((4-(6-fluoro-1H-indol-3-yl)piperidin-1-yl)methyl)isoindoline-1,3-dione] | B ("B" is defined as 80%< substrate protein remaining %≤ 100%) | A ("A" is defined as 0% ≤ substrate protein remaining % ≤ 80%) | A ("A" is defined as 0% ≤ substrate protein remaining % ≤ 80%) | B ("B" is defined as 80%< substrate protein remaining %≤ 100%) | B ("B" is defined as 80%< substrate protein remaining %≤ 100%) | A ("A" is defined as 0% ≤ substrate protein remaining % ≤ 80%) |  |  |  |  |  | 
O=C1CCN(N2Cc3cc(CN4CC=C(c5ncccc5F)CC4)ccc3C2=O)C(=O)N1 [GT-06395, 1-(5-((3-fluoro-3',6'-dihydro-[2,4'-bipyridin]-1'(2'H)-yl)methyl)-1-oxoisoindolin-2-yl)dihydropyrimidine-2,4(1H,3H)-dione] | B ("B" is defined as 80%< substrate protein remaining %≤ 100%) | B ("B" is defined as 80%< substrate protein remaining %≤ 100%) | B ("B" is defined as 80%< substrate protein remaining %≤ 100%) | B ("B" is defined as 80%< substrate protein remaining %≤ 100%) | A ("A" is defined as 0% ≤ substrate protein remaining % ≤ 80%) | A ("A" is defined as 0% ≤ substrate protein remaining % ≤ 80%) |  |  |  |  |  | 
O=C1CCN(N2Cc3cc(CN4CCC(c5ccccc5F)CC4)ccc3C2=O)C(=O)N1 [GT-06889, 1-(5-((4-(2-fluorophenyl)piperidin-1-yl)methyl)-1-oxoisoindolin-2-yl)dihydropyrimidine-2,4(1H,3H)-dione] | A ("A" is defined as 0% ≤ substrate protein remaining % ≤ 80%) | B ("B" is defined as 80%< substrate protein remaining %≤ 100%) | A ("A" is defined as 0% ≤ substrate protein remaining % ≤ 80%) | B ("B" is defined as 80%< substrate protein remaining %≤ 100%) | B ("B" is defined as 80%< substrate protein remaining %≤ 100%) | A ("A" is defined as 0% ≤ substrate protein remaining % ≤ 80%) |  |  |  |  |  | 
O=C1CCN(N2Cc3cc(CN4CCN(c5ncccc5F)CC4)ccc3C2=O)C(=O)N1 [GT-05129, 1-(5-((4-(3-fluoropyridin-2-yl)piperazin-1-yl)methyl)-1-oxoisoindolin-2-yl)dihydropyrimidine-2,4(1H,3H)-dione] | A ("A" is defined as 0% ≤ substrate protein remaining % ≤ 80%) | A ("A" is defined as 0% ≤ substrate protein remaining % ≤ 80%) | A ("A" is defined as 0% ≤ substrate protein remaining % ≤ 80%) | A ("A" is defined as 0% ≤ substrate protein remaining % ≤ 80%) | A ("A" is defined as 0% ≤ substrate protein remaining % ≤ 80%) | A ("A" is defined as 0% ≤ substrate protein remaining % ≤ 80%) |  |  |  |  |  | 
O=C1CCN(N2Cc3cc(CN4CCN(c5nc(N6CCNCC6)c6sccc6n5)CC4)ccc3C2=O)C(=O)N1 [GT-08949, 1-(1-oxo-5-((4-(4-(piperazin-1-yl)thieno[3,2-d]pyrimidin-2-yl)piperazin-1-yl)methyl)isoindolin-2-yl)dihydropyrimidine-2,4(1H,3H)-dione] |  |  |  |  |  |  | B (80%< substrate protein remaining %≤ 100%) | B (80%< substrate protein remaining %≤ 100%) | B (80%< substrate protein remaining %≤ 100%) | B (80%< substrate protein remaining %≤ 100%) | B (80%< substrate protein remaining %≤ 100%) | A (0% ≤ substrate protein remaining % ≤ 80%)
O=C1CCN(N2C(=O)c3ccc(CN4CCC(N5CCc6cc(F)ccc65)CC4)cc3C2=O)C(=O)N1 [GT-05260, 2-(2,4-dioxotetrahydropyrimidin-1(2H)-yl)-5-((4-(5-fluoroindolin-1-yl)piperidin-1-yl)methyl)isoindoline-1,3-dione] | A ("A" is defined as 0% ≤ substrate protein remaining % ≤ 80%) | A ("A" is defined as 0% ≤ substrate protein remaining % ≤ 80%) | A ("A" is defined as 0% ≤ substrate protein remaining % ≤ 80%) | B ("B" is defined as 80%< substrate protein remaining %≤ 100%) | B ("B" is defined as 80%< substrate protein remaining %≤ 100%) | B ("B" is defined as 80%< substrate protein remaining %≤ 100%) |  |  |  |  |  | 
O=C1CCN(N2Cc3cc(CN4CCN(c5ccncc5F)CC4)ccc3C2=O)C(=O)N1 [GT-05697, 1-(5-((4-(3-fluoropyridin-4-yl)piperazin-1-yl)methyl)-1-oxoisoindolin-2-yl)dihydropyrimidine-2,4(1H,3H)-dione] | A ("A" is defined as 0% ≤ substrate protein remaining % ≤ 80%) | B ("B" is defined as 80%< substrate protein remaining %≤ 100%) | B ("B" is defined as 80%< substrate protein remaining %≤ 100%) | B ("B" is defined as 80%< substrate protein remaining %≤ 100%) | B ("B" is defined as 80%< substrate protein remaining %≤ 100%) | A ("A" is defined as 0% ≤ substrate protein remaining % ≤ 80%) |  |  |  |  |  | 
